{
  "source": "patent US20070114186A1",
  "about": "(priority 2003, published 2007)",
  "system": "pseudomonas & other pathogens",
  "data": [
    {"smiles": "[Zn]", "note": "[zinc]", "values": [
      {"measurement": "kills pseudomonas & other pathogens", "result": "kills pseudomonas & other pathogens"}
    ]}
  ]
}
